Consider one compound from US20060040991A1, “Pharmaceutical presentation form for oral administration of a poorly soluble active compound, process for its preparation and kit” (Baxter International Inc., priority 2004, published 2006).

The subject of one series is tubulin. The conditions noted are these: cited from earlier work.
Series [1] is described as follows: Solubility of indibulin in solvents. In kind it is physicochemical.
A short description of series [2]: Bioavailability on peroral administration in customary presentation forms. In kind it is in vivo.

As to `O=C(Nc1ccncc1)C(=O)c1cn(Cc2ccc(Cl)cc2)c2ccccc12` [indibulin, N-(pyridin-4-yl)-[1-(4-chlorobenzyl)indol-3-yl]-glyoxylamide], in the series with tubulin, the “in vitro and in vivo activity as a tubulin inhibitor” value was “significant”. For the same compound, the “solubility in various organic solvents” value in series [1] (dimethylformamide, dimethyl sulfoxide and N-methylpyrrolidone) was “Adequate solubility”. Further, the “solubility in highly concentrated organic acids” value in series [1] (greater than 50% by weight, e.g. acetic acid or lactic acid) was “relatively good solvents”. Further, the “solubility in hydrophilic solvents” value in series [1] (water, methanol, ethanol and isopropanol) is on record as “virtually insoluble”. For the same compound, the bioavailability result in series [2] (micronized active compound processed to oral presentation forms (suspensions, capsules or tablets)) is reported as “comparatively low”; in series [2] (perorally in customary presentation forms, e.g. powder, granule, tablet or capsule), “low”.
